Assay results as given in patent US8133913B2, “Substituted indeno [1,2-b]indole derivatives as novel inhibitors of protein kinase CK2 and their use as tumor therapeutic agents, cytostatics and diagnostic aids” (Heinrich-Heine Universitat Dusseldof, priority 2006, dated 2012).

Assays:
[1] = tested on: MCF-7; experiment: Proliferation of tumor cell lines (Bracht et al.); format: cell-based; conditions: Homo sapiens, MCF7, read-out: IC50 (μM) Mean, inhibition of cell proliferation
[2] = target: T1, CK2-alpha1 (catalytic subunit of CK2) (Homo sapiens, UniProt P68400); experiment: Radiometric protein kinase assay (33PanQinase Activity Assay); format: biochemical; conditions: 1 μM ATP, substrate casein
T1 construct: made in house; host or cells: Sf9 insect cells, baculovirus

[3] = tested on: A427; experiment: Proliferation of tumor cell lines (Bracht et al.); format: cell-based; conditions: Homo sapiens, A-427, read-out: IC50 (μM) Mean, inhibition of cell proliferation
[4] = target: T2, human CK2 protein kinase (holoenzyme) (Homo sapiens, UniProt P68400); experiment: Inhibition of recombinant human CK2 protein kinase (holoenzyme), radiometric filter assay with peptide […]; format: biochemical
T2 construct: made in house; host or cells: E. coli BL21(DE3), pT7-7 or bicistronic pET11d-CK2α, β

[5] = tested on: RT-4; experiment: Proliferation of tumor cell lines (Bracht et al.); format: cell-based; conditions: Homo sapiens, read-out: IC50 (μM) Mean, inhibition of cell proliferation
[6] = target: T3, EGF-R (Homo sapiens, UniProt P00533); experiment: Radiometric protein kinase assay (33PanQinase Activity Assay); format: biochemical; conditions: 1 μM ATP
T3 construct: made in house; host or cells: Sf9 insect cells, baculovirus

[7] = tested on: DAN-G; experiment: Proliferation of tumor cell lines (Bracht et al.); format: cell-based; conditions: read-out: IC50 (μM) Mean, inhibition of cell proliferation
[8] = tested on: LCLC; experiment: Proliferation of tumor cell lines (Bracht et al.); format: cell-based; conditions: read-out: IC50 (μM) Mean, inhibition of cell proliferation

T2 sequence (P68400 whole entry): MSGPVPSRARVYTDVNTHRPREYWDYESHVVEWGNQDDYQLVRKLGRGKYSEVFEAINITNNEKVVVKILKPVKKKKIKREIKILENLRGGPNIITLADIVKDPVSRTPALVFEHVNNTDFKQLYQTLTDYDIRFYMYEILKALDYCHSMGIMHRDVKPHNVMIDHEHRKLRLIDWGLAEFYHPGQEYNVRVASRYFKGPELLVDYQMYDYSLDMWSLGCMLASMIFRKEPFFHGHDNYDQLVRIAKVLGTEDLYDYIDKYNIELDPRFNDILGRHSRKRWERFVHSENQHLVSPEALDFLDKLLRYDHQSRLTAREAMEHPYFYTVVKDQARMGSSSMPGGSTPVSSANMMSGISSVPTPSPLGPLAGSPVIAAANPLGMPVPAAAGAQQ
T2 sequence (P67870 whole entry partner): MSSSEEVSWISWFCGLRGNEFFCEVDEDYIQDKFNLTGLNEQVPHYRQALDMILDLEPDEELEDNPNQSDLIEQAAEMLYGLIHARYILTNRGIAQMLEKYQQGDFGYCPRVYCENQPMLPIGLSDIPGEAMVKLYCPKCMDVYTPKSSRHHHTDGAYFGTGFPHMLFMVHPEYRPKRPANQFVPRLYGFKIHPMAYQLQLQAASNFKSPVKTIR
T3 sequence (P00533 25-1210): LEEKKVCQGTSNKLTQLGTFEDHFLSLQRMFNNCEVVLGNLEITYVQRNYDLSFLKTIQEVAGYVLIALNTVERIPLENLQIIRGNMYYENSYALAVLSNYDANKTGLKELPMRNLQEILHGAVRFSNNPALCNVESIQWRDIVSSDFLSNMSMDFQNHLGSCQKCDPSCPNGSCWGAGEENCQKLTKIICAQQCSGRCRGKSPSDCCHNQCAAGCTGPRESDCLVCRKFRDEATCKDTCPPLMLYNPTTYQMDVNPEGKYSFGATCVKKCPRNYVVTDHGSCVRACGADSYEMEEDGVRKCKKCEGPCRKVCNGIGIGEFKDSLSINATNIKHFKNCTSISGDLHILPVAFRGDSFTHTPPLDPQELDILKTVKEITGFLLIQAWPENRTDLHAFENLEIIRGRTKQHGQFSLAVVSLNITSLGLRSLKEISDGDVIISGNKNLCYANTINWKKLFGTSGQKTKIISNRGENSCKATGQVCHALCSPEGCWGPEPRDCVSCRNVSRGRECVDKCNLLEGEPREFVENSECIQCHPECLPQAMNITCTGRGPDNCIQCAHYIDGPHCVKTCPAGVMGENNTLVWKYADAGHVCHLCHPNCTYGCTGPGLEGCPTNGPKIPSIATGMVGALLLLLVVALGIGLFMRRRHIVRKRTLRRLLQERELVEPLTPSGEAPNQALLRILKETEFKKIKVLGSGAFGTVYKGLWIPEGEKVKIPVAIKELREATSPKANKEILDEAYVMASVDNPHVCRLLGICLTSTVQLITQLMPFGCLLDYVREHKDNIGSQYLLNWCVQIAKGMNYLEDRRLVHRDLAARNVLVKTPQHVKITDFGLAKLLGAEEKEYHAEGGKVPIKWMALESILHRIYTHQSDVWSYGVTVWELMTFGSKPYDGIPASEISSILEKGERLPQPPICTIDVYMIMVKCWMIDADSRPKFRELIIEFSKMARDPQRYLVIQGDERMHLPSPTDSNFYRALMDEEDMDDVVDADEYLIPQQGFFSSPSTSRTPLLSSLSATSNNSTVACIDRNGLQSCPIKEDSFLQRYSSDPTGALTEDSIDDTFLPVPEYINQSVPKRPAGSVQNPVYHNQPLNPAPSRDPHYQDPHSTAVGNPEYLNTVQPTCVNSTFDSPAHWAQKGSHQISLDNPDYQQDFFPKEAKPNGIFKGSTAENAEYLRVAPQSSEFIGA
T1 sequence (P68400 whole entry): as the sequence (P68400 whole entry) above

IC50 [1] | IC50 [2] | IC50 [3] | inhibition at 10 µM ([4]; 10 μM compound, DMSO control = 100% CK2 activity, at least three independent experiments) | IC50 ([4]; concentration range 30 μM to 0.01 μM, 100 μM ATP in assay buffer) | IC50 [5] | IC50 [7] | IC50 [8] | Structure (SMILES) | IC50 [6]
3.27 µM | > 10 µM | 3.74 µM | 60% | 1.49 µM | > 20 µM | > 20 µM | 4.14 µM | O=c1ccc(=O)c2c1c1c(=O)c3ccccc3c1n2Cc1ccccc1 [Compound 6c, 5-Benzyl 5,6,9,10-tetrahydroindeno[1,2-b]indole-6,9,10-trione] | 2.5 µM
 |  |  |  |  |  |  |  | CC(C)n1c2c(=O)ccc(=O)c2c2c(=O)c3ccccc3c21 [Compound 6b, 5-Isopropyl-5H-indeno[1,2-b]indole-6,9,10-trione] | > 10 µM
